Experimental data taken from patent publication US20090062223A1, “AMINO TRICYCLIC-NUCLEOSIDE COMPOUNDS, COMPOSITIONS, AND METHODS OF USE” (GENELABS TECHNOLOGIES, INC., priority 2007, published 2009).
Values after ≈ are worked out from the molar mass of the structure shown.

How the values were obtained:
[1] = Solubility (shaking flask); format: physicochemical; conditions: thermodynamic from solid, 37° C. for 24 hours
Experimental: The solubility for certain compounds were determined using the following protocol and procedure. 1) The solution, sterile water or phosphate buffer solution (PBS), was added to the test compound tube to make the final concentration 10 mg/mL. 2) The sample tube was vortexed and incubated at 37° C. for 24 hours. During the incubation period, the sample tube was vortexed several times. 3) After the incubation, vortex the tube and centrifuge the tube at 13,000 rpm for 10 mins using an Eppendorf Centrifuge Model 5415C. If the solution was still cloudy, centrifuge it for longer until a clear supernatant was achieved. 4) The supernatant was diluted to 1×, 10× and 100× in 50% ACN in water. 5) A six point standard curve was prepared separately to make the final concentrations of 1 μg/mL, 5 μg/mL, 10 μg/mL, 20 μg/mL, 40 μg/mL and 60 μg/mL. 6) Samples were quantified using an HPLC with UV detector. 7) From the three concentrations of 1×, 10× and 100× supernatant, choose the value, which was fallen into the standard curve range (1 ug/mL-60 ug/mL), as the final result. If all the results were out of the curve range, adjust using a dilution factor to make the value within the curve range.

Caco-2 cells = experiment: in vitro; format: in vitro ADME
Experimental: Caco-2 cells were maintained in Dulbecco's Modification of Eagle's Medium (DMEM) with sodium pyruvate, Glutmax supplemented with 1% Pen/Strep, 1% NEAA and 10% fetal bovine serum in an incubator set at 37° C., 90% humidity and 5% CO2. Caco-2 cells between passage 43 and 61 were grown to confluence over at least 21-days on 24 well PET (polyethylene-terephthalate) plates (BD Biosciences). Experiments were run using a new HBSS donor buffer from Invitrogen containing additional 10 mM HEPES, 15 mM Glucose with pH adjusted to pH 6.5. The receiver well used HBSS buffer supplemented with 1% BSA and the pH adjusted to pH 7.4. After an initial equilibration with transport buffer, TEER values were read to test membrane integrity. The experiment was started by the addition of buffers containing test compounds and 100 μl of solution is taken at 1 and 2 hrs from the receiver compartment. Removed buffer was replaced with fresh buffer and a correction was applied to all calculations for the removed material. Each compound was tested in 2 separate replicate wells for each condition. All samples were immediately collected into 400 μl 100% acetonitrile acid to precipitate protein and stabilize test compounds. Cells were dosed on the apical or basolateral side to determine forward (A to B) and reverse (B to A) permeability. Permeability through a cell free trans-well was also determined as a measure of cellular permeability through the membrane and non-specific binding. To test for non-specific binding and compound instability the total amount of drug was quantitated at the end of the experiment and compared to the material present in the original dosing solution as a percent recovery. Samples were analyzed by LC/MS/MS.
The apparent permeability, Papp, and % recovery were calculated as follows: […]
where, • dR/dt is the slope of the cumulative concentration in the receiver compartment versus time in μM/s based on receiver concentrations measured at 60 and 120 minute. • Vr and Vd is the volume in the receiver and donor compartment in cm^3, respectively. • A is the area of the cell monolayer (0.33 cm^2). • D0 and D120 is the measured donor concentration at the beginning and end of the experiment, respectively. • R120 is the receiver concentration at the end of the experiment (120 minutes).
The apparent permeability for certain compounds were determined using the above procedure.

[2] = Chemical stability in acidic solution (acid stability); format: physicochemical; conditions: pH 4.5 chemical solution; pH 4.5, 37° C.; read-out: Acid Stability (T ½, mins @ pH 4.5)
[3] = phosphate buffer solution (PBS), aqueous buffer, PBS

| SMILES | solubility at 24 h [1, 3] [µg/mL] | also measured |
| --- | --- | --- |
| CCCCCC(=O)OC[C@H]1O[C@@H](n2cc3c4c(ncnc42)NC(=O)C=C3N)[C@@](C)(O)[C@@H]1OC(=O)CCCCC (stereo in doubt) [Compound 102, Hexanoic acid 5-(9-amino-7-oxo-6,7-dihydro-2,3,5,6-tetraaza-benzo[cd]azulen-2-yl)-3-hexanoyloxy-4-hydroxy-4-methyl-tetrahydro-furan-2-ylmethyl ester] | 11 (≈ 20.2 µM) | Permeability Papp (A to B) × 10^−6 cm/s (Caco-2 A-B) (Caco-2 cells): high |
| CC(=O)OC[C@H]1O[C@@H](n2cc3c4c(ncnc42)NC(=O)C=C3N)[C@@](C)(O)[C@@H]1O (stereo in doubt) [Compound 107, Acetic acid 5-(9-amino-7-oxo-6,7-dihydro-2,3,5,6-tetraaza-benzo[cd]azulen-2-yl)-3,4-dihydroxy-4-methyl-tetrahydro-furan-2-ylmethylester] | 9150 (≈ 23500 µM) | Permeability Papp (A to B) × 10^−6 cm/s (Caco-2 A-B) (Caco-2 cells): low |
| CC(=O)O[C@@H]1[C@@H](CO)O[C@@H](n2cc3c4c(ncnc42)NC(=O)C=C3N)C1(C)O (stereo in doubt) [Compound 114, Acetic acid 5-(9-amino-7-oxo-6,7-dihydro-2,3,5,6-tetraaza-benzo[cd]azulen-2-yl)-4-hydroxy-2-hydroxymethyl-4-methyl-tetrahydro-furan-3-yl ester] | 2950 (≈ 7580 µM) | Permeability Papp (A to B) × 10^−6 cm/s (Caco-2 A-B) (Caco-2 cells): medium |
| CC(=O)OC[C@H]1O[C@@H](n2cc3c4c(ncnc42)NC(=O)C=C3NC(=O)OCOC(=O)C(C)C)C(C)(O)[C@@H]1OC(C)=O (stereo in doubt) [Compound 118, Isobutyric acid 2-(4-acetoxy-5-acetoxymethyl-3-hydroxy-3-methyl-tetrahydro-furan-2-yl)-7-oxo-6,7-dihydro-2H-2,3,5,6-tetraaza-benzo[cd]azulen-9-ylcarbamoyloxymethyl ester] | 60 (≈ 104 µM) |  |
| Cc1oc(=O)oc1COC(=O)NC1=CC(=O)Nc2ncnc3c2c1cn3[C@@H]1O[C@H](COC(=O)C(C)C)[C@@H](OC(=O)C(C)C)C1(C)O (stereo in doubt) [Compound 119, Isobutyric acid 4-hydroxy-3-isobutyryloxy-4-methyl-5-[9-(5-methyl-2-oxo-[1,3]dioxol-4-ylmethoxycarbonylamino)-7-oxo-6,7-dihydro-2,3,5,6-tetraaza-benzo[cd]azulen-2-yl]-tetrahydro-furan-2-ylmethyl ester] | 6 (≈ 9.32 µM) |  |
| CC(=O)OCOC(=O)NC1=CC(=O)Nc2ncnc3c2c1cn3[C@@H]1O[C@H](COC(C)=O)C(OC(C)=O)[C@@]1(C)O (stereo in doubt) [Compound 120, Acetic acid 3-acetoxy-5-(9-acetoxymethoxycarbonylamino-7-oxo-6,7-dihydro-2,3,5,6-tetraaza-benzo[cd]azulen-2-yl)-4-hydroxy-4-methyl-tetrahydro-furan-2-ylmethylester] | 60 (≈ 110 µM) |  |
| CC(=O)OC1(C)[C@H](OC(=O)C(C)C)[C@@H](COC(=O)C(C)C)O[C@H]1n1cc2c3c(ncnc31)NC(=O)C=C2N (stereo in doubt) [Compound 133, Isobutyric acid 4-acetoxy-5-(9-amino-7-oxo-6,7-dihydro-2,3,5,6-tetraaza-benzo[cd]azulen-2-yl)-3-isobutyryloxy-4-methyl-tetrahydro-furan-2-ylmethyl ester] | 17 (≈ 32.1 µM) |  |
| CC(C)C(=O)OCOC(=O)NC1=CC(=O)Nc2ncnc3c2c1cn3[C@@H]1O[C@H](CO)[C@@H](OC(=O)[C@@H](N)C(C)C)[C@]1(C)O [Compound 110, 2-Amino-3-methyl-butyric acid 4-hydroxy-2-hydroxymethyl-5-(9-isobutyryloxymethoxycarbonyl-amino-7-oxo-6,7-dihydro-2,3,5,6-tetraaza-benzo[cd]azulen-2-yl)-4-methyl-tetrahydro-furan-3-yl ester] | 8160 (≈ 13800 µM) |  |
| CC(=O)OCOC(=O)NC1=CC(=O)Nc2ncnc3c2c1cn3[C@@H]1O[C@H](COC(=O)C(C)C)[C@@H](OC(=O)C(C)C)[C@@]1(C)O [Compound 111, Isobutyric acid 5-(9-acetoxymethoxycarbonylamino-7-oxo-6,7-dihydro-2,3,5,6-tetraaza-benzo[cd]azulen-2-yl)-4-hydroxy-2-isobutyryloxymethyl-4-methyl-tetrahydro-furan-3-yl ester] | 2 (≈ 3.31 µM) |  |
| CC(=O)O[C@@H]1[C@@H](CO)O[C@@H](n2cc3c4c(ncnc42)NC(=O)C=C3NC(=O)OCOC(=O)C(C)C)[C@]1(C)O [Compound 112, Isobutyric acid 2-(4-acetoxy-3-hydroxy-5-hydroxymethyl-3-methyl-tetrahydro-furan-2-yl)-7-oxo-6,7-dihydro-2H-2,3,5,6-tetraaza-benzo[cd]azulen-9-ylcarbamoyloxymethyl ester] | 80 (≈ 150 µM) |  |
| CC(C)C(=O)OCOC(=O)NC1=CC(=O)Nc2ncnc3c2c1cn3[C@@H]1O[C@H](CO)[C@@H](OC(=O)C(C)C)C1(C)O (stereo partly drawn) [Compound 125, Isobutyric acid 4-hydroxy-2-hydroxymethyl-5-(9-isobutyryloxymethoxycarbonyl-amino-7-oxo-6,7-dihydro-2,3,5,6-tetraaza-benzo[cd]azulen-2-yl)-4-methyl-tetrahydro-furan-3-yl ester] | 51 (≈ 90.8 µM) |  |
| CC(C)C(=O)OCOC(=O)NC1=CC(=O)Nc2ncnc3c2c1cn3[C@@H]1O[C@H](COC(=O)C(C)C)[C@@H](O)C1(C)O (stereo partly drawn) [Compound 129, Isobutyric acid 3,4-dihydroxy-5-(9-isobutyryloxymethoxycarbonyl-amino-7-oxo-6,7-dihydro-2,3,5,6-tetraaza-benzo[cd]azulen-2-yl)-4-methyl-tetrahydro-furan-2-ylmethylester] |  | solubility at 24 h ([1]; sterile water, water): 120 µg/mL (≈ 214 µM); half-life at 1 µg/mL [2]: > 2 h |

Now from value to compound, other results behind:

| solubility at 24 h [1, 3] [µg/mL] | SMILES | also measured |
| --- | --- | --- |
| 850 (≈ 1850 µM) | CCC(=O)OC[C@H]1O[C@@H](n2cc3c4c(ncnc42)NC(=O)C=C3N)C(C)(O)[C@@H]1OC(=O)CC (stereo in doubt) [Compound 130, Propionic acid 5-(9-amino-7-oxo-6,7-dihydro-2,3,5,6-tetraaza-benzo[cd]azulen-2-yl)-4-hydroxy-4-methyl-3-propionyloxy-tetrahydro-furan-2-ylmethyl ester] |  |
| 8060 (≈ 20000 µM) | CCC(=O)OC[C@H]1O[C@@H](n2cc3c4c(ncnc42)NC(=O)C=C3N)C(C)(O)[C@@H]1O (stereo in doubt) [Compound 131, Propionic acid 5-(9-amino-7-oxo-6,7-dihydro-2,3,5,6-tetraaza-benzo[cd]azulen-2-yl)-3,4-dihydroxy-4-methyl-tetrahydro-furan-2-ylmethylester] |  |
| 40 (≈ 79.5 µM) | Cc1oc(=O)oc1COC(=O)NC1=CC(=O)Nc2ncnc3c2c1cn3[C@@H]1O[C@H](CO)[C@@H](O)C1(C)O (stereo partly drawn) [Compound 126, [2-(3,4-Dihydroxy-5-hydroxymethyl-3-methyl-tetrahydro-furan-2-yl)-7-oxo-6,7-dihydro-2H-2,3,5,6-tetraaza-benzo[cd]azulen-9-yl]-carbamic acid5-methyl-2-oxo-[1,3]dioxol-4-ylmethyl ester] |  |
| 133 (≈ 258 µM) | CCC(=O)OC[C@H]1O[C@@H](n2cc3c4c(ncnc42)NC(=O)C=C3N)C(C)(OC(=O)CC)[C@@H]1OC(=O)CC (stereo partly drawn) [Compound 127, Propionic acid 5-(9-amino-7-oxo-6,7-dihydro-2,3,5,6-tetraaza-benzo[cd]azulen-2-yl)-4-methyl-3,4-bis-propionyloxy-tetrahydro-furan-2-ylmethyl ester] |  |
| 44 (≈ 78.9 µM) | CC(C)C(=O)OC[C@H]1O[C@@H](n2cc3c4c(ncnc42)NC(=O)C=C3N)C(C)(OC(=O)C(C)C)[C@@H]1OC(=O)C(C)C (stereo partly drawn) [Compound 132, Isobutyric acid 5-(9-amino-7-oxo-6,7-dihydro-2,3,5,6-tetraaza-benzo[cd]azulen-2-yl)-3,4-bis-isobutyryloxy-4-methyl-tetrahydro-furan-2-ylmethyl ester] |  |
